The source made the active and inactive calls. How the calls were made is not given here.
Columns and labels:
Test in all cases: receptor, enzyme and CYP inhibition profiling – biochemical, Ricerca HitProfilingScreen, CYP450, selectivity assay for S1P4 antagonist project, profiling panel (AID 489017)
[1] = molecular target: Alpha-2A adrenergic receptor (Homo sapiens) (UniProt P08913); settings: Ricerca receptor/enzyme binding panel plus CYP450; Adrenergic alpha2A; at 10 µM; stronger effect = higher value
[2] = molecular target: Muscarinic acetylcholine receptor M2 (Homo sapiens) (UniProt P08172); settings: Ricerca receptor/enzyme binding panel plus CYP450, at 10 µM, stronger effect = higher value
Adenosine A2A = settings: Ricerca receptor/enzyme binding panel plus CYP450, at 10 µM, stronger effect = higher value
GABAA Central = settings: at 10 µM, stronger effect = higher value
CYP450 2C19 = settings: Ricerca receptor/enzyme binding panel plus CYP450, at 10 µM, stronger effect = higher value
[3] = molecular target: 5-hydroxytryptamine receptor 2B (Homo sapiens) (UniProt P41595); settings: Ricerca receptor/enzyme binding panel plus CYP450; Serotonin (5-Hydroxytryptamine) 5-HT2B; at 10 µM; stronger effect = higher value
[4] = molecular target: D(1A) dopamine receptor (Homo sapiens) (UniProt P21728); settings: Ricerca receptor/enzyme binding panel plus CYP450; Dopamine D1; at 10 µM; stronger effect = higher value
Adrenergic alpha1A = settings: Ricerca receptor/enzyme binding panel plus CYP450, at 10 µM, stronger effect = higher value
Prostanoid EP4 = settings: Ricerca receptor/enzyme binding panel plus CYP450, at 10 µM, stronger effect = higher value
[5] = molecular target: Cytochrome P450 1A2 (Homo sapiens) (UniProt P05177); settings: Ricerca receptor/enzyme binding panel plus CYP450; CYP450 1A2; at 10 µM; stronger effect = higher value
[6] = molecular target: Voltage-gated inwardly rectifying potassium channel KCNH2 (Homo sapiens) (UniProt Q12809); settings: Ricerca receptor/enzyme binding panel plus CYP450; Potassium Channel hERG; at 10 µM; stronger effect = higher value
[7] = system: Norepinephrine Transporter (NET); settings: Ricerca receptor/enzyme binding panel plus CYP450, at 10 µM, stronger effect = higher value
Adrenergic beta1 = settings: Ricerca receptor/enzyme binding panel plus CYP450, at 10 µM, stronger effect = higher value
Adrenergic alpha1B = settings: Ricerca receptor/enzyme binding panel plus CYP450, at 10 µM, stronger effect = higher value
[8] = molecular target: Cytochrome P450 2D6 (Homo sapiens) (UniProt P10635); settings: Ricerca receptor/enzyme binding panel plus CYP450; CYP450 2D6; at 10 µM; stronger effect = higher value
Opiate mu (OP3, MOP) = settings: Ricerca receptor/enzyme binding panel plus CYP450, at 10 µM, stronger effect = higher value
[9] = molecular target: Beta-2 adrenergic receptor (Homo sapiens) (UniProt P07550); settings: Ricerca receptor/enzyme binding panel plus CYP450; Adrenergic beta2; at 10 µM; stronger effect = higher value
Sigma 1 = settings: Ricerca receptor/enzyme binding panel plus CYP450, at 10 µM, stronger effect = higher value
Cannabinoid CB1 = settings: Ricerca receptor/enzyme binding panel plus CYP450, at 10 µM, stronger effect = higher value
Adenosine A1 = settings: Ricerca receptor/enzyme binding panel plus CYP450, at 10 µM, stronger effect = higher value
Sodium Channel = settings: Ricerca receptor/enzyme binding panel plus CYP450, site 2, at 10 µM, stronger effect = higher value
Nicotinic Acetylcholine = settings: Ricerca receptor/enzyme binding panel plus CYP450, at 10 µM, stronger effect = higher value
[10] = system: Alpha-2A adrenergic receptor (Homo sapiens) + Histamine H1 receptor (Homo sapiens) + Mu-type opioid receptor (Homo sapiens); settings: Ricerca receptor/enzyme binding panel plus CYP450; at 10 µM; stronger effect = higher value
Glutamate NMDA = settings: Ricerca receptor/enzyme binding panel plus CYP450, Phencyclidine site, at 10 µM, stronger effect = higher value
Histamine H1 = settings: Ricerca receptor/enzyme binding panel plus CYP450, at 10 µM, stronger effect = higher value
[11] = molecular target: Muscarinic acetylcholine receptor M3 (Homo sapiens) (UniProt P20309); settings: Ricerca receptor/enzyme binding panel plus CYP450, at 10 µM, stronger effect = higher value
[12] = molecular target: Cytochrome P450 2C9 (Homo sapiens) (UniProt P11712); settings: Ricerca receptor/enzyme binding panel plus CYP450; CYP450 2C9; at 10 µM; stronger effect = higher value
Calcium Channel L-Type = settings: Ricerca receptor/enzyme binding panel plus CYP450, Dihydropyridine site, at 10 µM, stronger effect = higher value
Dopamine D2S = settings: Ricerca receptor/enzyme binding panel plus CYP450, at 10 µM, stronger effect = higher value
[13] = molecular target: Cytochrome P450 3A4 (Homo sapiens) (UniProt P08684); settings: Ricerca receptor/enzyme binding panel plus CYP450; CYP450 3A4; at 10 µM; stronger effect = higher value
Cytochrome P450 3A4 (Homo sapiens), sequence (P08684 whole entry, looked up): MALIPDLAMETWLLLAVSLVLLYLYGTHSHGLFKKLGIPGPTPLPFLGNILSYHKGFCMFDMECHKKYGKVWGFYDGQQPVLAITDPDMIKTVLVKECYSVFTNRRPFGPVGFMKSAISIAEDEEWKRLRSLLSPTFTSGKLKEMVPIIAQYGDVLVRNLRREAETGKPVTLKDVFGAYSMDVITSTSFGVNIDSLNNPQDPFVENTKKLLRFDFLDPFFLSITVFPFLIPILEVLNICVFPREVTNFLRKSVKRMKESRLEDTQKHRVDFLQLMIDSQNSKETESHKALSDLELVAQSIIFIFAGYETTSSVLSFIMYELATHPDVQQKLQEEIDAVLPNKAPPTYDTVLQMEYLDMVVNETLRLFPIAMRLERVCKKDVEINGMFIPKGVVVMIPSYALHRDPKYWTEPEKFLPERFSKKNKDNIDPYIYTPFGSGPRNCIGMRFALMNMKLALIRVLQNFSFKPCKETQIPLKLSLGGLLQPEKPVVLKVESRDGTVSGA

Cytochrome P450 2D6 (Homo sapiens), sequence (P10635 whole entry, looked up): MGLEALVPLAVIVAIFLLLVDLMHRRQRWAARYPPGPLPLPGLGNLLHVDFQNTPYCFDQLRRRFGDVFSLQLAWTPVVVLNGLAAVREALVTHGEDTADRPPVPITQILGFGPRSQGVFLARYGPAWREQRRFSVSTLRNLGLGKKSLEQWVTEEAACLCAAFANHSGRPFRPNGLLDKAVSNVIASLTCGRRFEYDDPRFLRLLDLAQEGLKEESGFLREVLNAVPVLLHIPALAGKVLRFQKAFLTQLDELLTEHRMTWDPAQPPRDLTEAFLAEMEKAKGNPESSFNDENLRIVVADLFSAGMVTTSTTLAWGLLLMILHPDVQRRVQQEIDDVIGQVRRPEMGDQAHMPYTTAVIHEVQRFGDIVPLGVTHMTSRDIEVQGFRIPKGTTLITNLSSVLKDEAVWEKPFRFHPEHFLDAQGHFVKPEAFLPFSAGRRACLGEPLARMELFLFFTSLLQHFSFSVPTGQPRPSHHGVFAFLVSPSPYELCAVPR
Muscarinic acetylcholine receptor M2 (Homo sapiens), sequence (P08172 whole entry, looked up): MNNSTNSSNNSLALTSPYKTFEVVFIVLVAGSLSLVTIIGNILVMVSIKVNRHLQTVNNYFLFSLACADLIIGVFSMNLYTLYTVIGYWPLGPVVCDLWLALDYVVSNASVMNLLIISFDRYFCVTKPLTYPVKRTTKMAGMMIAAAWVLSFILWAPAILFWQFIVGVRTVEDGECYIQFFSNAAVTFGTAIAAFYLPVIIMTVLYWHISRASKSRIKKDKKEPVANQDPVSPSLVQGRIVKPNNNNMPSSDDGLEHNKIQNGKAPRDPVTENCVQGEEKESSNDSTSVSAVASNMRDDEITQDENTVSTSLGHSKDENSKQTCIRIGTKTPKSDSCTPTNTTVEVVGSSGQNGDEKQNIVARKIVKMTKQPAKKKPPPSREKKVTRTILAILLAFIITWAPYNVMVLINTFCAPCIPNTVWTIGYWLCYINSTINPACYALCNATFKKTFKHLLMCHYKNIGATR
Cytochrome P450 2C9 (Homo sapiens), sequence (P11712 whole entry, looked up): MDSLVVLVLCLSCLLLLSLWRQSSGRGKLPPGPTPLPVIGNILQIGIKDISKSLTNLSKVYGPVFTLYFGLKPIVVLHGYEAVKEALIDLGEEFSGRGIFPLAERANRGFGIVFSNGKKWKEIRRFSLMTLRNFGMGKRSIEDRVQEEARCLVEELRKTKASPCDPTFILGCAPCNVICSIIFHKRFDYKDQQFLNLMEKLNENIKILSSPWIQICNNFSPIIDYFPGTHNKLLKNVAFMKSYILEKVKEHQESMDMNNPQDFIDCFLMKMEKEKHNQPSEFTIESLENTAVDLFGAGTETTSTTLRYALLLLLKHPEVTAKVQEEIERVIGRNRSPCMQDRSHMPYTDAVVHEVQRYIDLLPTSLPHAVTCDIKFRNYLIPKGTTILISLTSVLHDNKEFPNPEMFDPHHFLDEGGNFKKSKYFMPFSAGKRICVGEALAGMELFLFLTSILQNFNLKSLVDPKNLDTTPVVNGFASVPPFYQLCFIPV
D(1A) dopamine receptor (Homo sapiens), sequence (P21728 whole entry, looked up): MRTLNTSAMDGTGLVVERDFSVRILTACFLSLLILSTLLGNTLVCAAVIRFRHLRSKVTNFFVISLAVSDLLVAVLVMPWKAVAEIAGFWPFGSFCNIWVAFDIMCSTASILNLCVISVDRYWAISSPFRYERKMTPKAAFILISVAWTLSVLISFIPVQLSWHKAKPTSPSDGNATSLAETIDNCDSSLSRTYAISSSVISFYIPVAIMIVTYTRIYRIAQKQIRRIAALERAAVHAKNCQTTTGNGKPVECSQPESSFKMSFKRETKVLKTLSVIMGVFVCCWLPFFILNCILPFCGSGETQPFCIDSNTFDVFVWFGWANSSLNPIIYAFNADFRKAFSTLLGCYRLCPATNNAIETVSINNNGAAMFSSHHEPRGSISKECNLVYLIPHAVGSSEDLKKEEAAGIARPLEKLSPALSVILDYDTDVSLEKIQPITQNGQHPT
Muscarinic acetylcholine receptor M3 (Homo sapiens), sequence (P20309 whole entry, looked up): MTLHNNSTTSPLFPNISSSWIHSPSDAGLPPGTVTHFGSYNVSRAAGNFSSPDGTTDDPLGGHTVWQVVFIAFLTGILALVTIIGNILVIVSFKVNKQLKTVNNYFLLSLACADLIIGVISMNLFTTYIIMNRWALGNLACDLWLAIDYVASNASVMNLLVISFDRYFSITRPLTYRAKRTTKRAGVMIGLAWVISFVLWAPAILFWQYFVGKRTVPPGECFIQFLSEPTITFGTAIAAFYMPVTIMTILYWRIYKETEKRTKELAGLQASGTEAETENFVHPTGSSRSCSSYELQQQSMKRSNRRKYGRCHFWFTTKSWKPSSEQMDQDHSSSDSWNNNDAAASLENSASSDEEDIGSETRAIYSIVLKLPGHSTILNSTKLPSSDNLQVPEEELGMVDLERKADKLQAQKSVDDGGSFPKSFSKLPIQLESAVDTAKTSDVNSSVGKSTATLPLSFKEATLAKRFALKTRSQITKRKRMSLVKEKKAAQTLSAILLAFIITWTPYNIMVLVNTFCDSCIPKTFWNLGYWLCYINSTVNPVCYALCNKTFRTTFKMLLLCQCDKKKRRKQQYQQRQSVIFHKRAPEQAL
5-hydroxytryptamine receptor 2B (Homo sapiens), sequence (P41595 whole entry, looked up): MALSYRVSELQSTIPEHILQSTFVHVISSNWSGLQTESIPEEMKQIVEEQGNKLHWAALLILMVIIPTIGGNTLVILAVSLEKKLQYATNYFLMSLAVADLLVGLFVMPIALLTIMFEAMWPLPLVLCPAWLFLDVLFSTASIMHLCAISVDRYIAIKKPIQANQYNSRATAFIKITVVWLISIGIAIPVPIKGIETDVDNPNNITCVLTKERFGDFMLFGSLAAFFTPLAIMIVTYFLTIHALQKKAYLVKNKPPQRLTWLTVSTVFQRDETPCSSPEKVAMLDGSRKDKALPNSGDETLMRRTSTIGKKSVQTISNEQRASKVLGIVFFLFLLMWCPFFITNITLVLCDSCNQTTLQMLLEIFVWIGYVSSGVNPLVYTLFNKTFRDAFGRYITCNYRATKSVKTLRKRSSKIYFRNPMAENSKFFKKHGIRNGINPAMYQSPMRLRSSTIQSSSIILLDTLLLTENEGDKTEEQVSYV
Alpha-2A adrenergic receptor (Homo sapiens), sequence (P08913 whole entry, looked up): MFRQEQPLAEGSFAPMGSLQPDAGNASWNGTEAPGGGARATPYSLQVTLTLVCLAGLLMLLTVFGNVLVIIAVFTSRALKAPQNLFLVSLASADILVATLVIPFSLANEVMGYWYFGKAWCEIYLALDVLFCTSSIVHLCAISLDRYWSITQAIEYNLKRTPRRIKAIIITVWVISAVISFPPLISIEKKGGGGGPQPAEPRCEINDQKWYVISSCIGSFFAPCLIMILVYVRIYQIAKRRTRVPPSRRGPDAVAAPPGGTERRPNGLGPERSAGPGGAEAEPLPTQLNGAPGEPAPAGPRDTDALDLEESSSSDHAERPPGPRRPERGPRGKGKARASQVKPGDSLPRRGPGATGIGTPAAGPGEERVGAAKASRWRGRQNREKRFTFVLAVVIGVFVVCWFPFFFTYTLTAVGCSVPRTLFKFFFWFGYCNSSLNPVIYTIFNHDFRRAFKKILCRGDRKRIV
Beta-2 adrenergic receptor (Homo sapiens), sequence (P07550 whole entry, looked up): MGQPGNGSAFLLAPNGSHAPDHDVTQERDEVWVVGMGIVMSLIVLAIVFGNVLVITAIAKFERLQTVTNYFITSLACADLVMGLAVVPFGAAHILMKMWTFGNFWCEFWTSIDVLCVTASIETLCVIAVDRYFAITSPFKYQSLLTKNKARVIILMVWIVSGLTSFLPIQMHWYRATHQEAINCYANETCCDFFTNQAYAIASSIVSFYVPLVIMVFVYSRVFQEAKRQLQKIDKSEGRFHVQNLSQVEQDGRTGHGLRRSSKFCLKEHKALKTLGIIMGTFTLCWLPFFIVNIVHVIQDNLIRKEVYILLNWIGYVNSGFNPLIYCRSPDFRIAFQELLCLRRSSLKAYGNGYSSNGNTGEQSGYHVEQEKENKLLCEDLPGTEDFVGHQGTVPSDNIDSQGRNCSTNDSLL
Cytochrome P450 1A2 (Homo sapiens), sequence (P05177 whole entry, looked up): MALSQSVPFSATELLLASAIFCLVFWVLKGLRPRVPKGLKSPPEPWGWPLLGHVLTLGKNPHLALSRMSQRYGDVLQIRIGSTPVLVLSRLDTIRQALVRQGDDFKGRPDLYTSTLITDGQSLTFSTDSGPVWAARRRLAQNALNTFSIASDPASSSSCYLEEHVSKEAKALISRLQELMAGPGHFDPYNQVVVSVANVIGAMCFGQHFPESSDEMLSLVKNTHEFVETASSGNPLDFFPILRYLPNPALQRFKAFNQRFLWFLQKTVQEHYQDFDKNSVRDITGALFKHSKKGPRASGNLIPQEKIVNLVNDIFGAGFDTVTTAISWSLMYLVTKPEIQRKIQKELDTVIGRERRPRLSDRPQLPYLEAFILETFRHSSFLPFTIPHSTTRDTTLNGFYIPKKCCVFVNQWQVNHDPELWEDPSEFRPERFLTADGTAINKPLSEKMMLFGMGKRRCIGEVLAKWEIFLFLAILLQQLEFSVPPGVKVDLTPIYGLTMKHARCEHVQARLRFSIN

CCc1cccc(CC)c1NC(=O)c1ccc(-c2cc(Cl)ccc2Cl)o1
inhibition [1]: 18% (inactive) | inhibition [2]: -3% (inactive) | inhibition (Adenosine A2A): -6% (inactive) | inhibition (GABAA Central; Ricerca receptor/enzyme binding panel plus CYP450, Flunitrazepam site): 7% (inactive) | inhibition (GABAA Central; Ricerca receptor/enzyme binding panel plus CYP450, Muscimol site): 8% (inactive) | inhibition (CYP450 2C19): 37% (inactive) | inhibition [3]: 40% (inactive) | inhibition [4]: 5% (inactive) | inhibition (Adrenergic alpha1A): -3% (inactive) | inhibition (Prostanoid EP4): 27% (inactive) | inhibition [5]: 27% (inactive) | inhibition [6]: 10% (inactive) | inhibition [7]: 17% (inactive) | inhibition (Adrenergic beta1): 0% (inactive) | inhibition (Adrenergic alpha1B): -6% (inactive) | inhibition [8]: 1% (inactive) | inhibition (Opiate mu (OP3, MOP)): 8% (inactive) | inhibition [9]: 11% (inactive) | inhibition (Sigma 1): -7% (inactive) | inhibition (Cannabinoid CB1): 15% (inactive) | inhibition (Adenosine A1): 0% (inactive) | inhibition (Sodium Channel): 43% (inactive) | inhibition (Nicotinic Acetylcholine): -12% (inactive) | inhibition [10]: -4% (inactive) | inhibition (Glutamate NMDA): 1% (inactive) | inhibition (Histamine H1): 30% (inactive) | inhibition [11]: 2% (inactive) | inhibition [12]: 51% | inhibition (Calcium Channel L-Type): 12% (inactive) | inhibition (Dopamine D2S): 13% (inactive) | inhibition [13]: 22% (inactive)
